Drawing on patent publication US20040186081A1, “Naaladase inhibitors for treating opioid tolerance” (Guilford Pharmaceuticals Inc., priority 2003, published 2004), this text covers Ki and IC50 for 23 compounds.

Structures are written as SMILES. pIC50, pKi: −log10 of the molar value. A value given as a limit tells only on which side of the number the result lay.

Sequence of NAALADase (Q04609 whole entry): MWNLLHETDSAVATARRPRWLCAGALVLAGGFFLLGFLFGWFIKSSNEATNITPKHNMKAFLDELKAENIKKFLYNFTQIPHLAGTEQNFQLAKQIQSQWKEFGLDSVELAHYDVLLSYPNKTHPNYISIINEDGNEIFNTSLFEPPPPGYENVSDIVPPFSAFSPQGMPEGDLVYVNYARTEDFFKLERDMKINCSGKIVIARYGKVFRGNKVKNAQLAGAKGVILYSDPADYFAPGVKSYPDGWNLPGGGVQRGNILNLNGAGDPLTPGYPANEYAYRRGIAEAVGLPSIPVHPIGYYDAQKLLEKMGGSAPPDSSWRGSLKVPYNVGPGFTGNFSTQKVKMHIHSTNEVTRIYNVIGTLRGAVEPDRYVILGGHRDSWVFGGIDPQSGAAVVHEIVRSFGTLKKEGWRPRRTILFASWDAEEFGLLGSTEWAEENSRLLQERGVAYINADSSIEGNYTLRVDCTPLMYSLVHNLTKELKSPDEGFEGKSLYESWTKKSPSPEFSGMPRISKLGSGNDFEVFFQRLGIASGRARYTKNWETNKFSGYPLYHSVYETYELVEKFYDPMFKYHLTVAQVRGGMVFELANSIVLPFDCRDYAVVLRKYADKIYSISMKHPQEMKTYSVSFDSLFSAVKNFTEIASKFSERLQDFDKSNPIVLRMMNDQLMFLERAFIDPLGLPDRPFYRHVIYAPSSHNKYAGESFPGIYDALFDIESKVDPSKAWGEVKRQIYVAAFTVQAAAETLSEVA

The first assay concerns the target NAALADase (Homo sapiens, UniProt Q04609). Kind of assay: In vitro inhibition of NAALADase activity. In kind it is biochemical.
Conditions: not given
In turn, `O=C(O)c1ccc(Sc2ccccc2C(=O)O)c(C(=O)O)c1` [4-[(2-carboxyphenyl)thio]-1,3-benzenedicarboxylic acid] gave a pKi of 5.40.

The compound `O=C(Cc1cc(C(=O)O)cc(C(=O)O)c1)NO` [5-[2-(hydroxyamino)-2-oxoethyl]-1,3-benzenedicarboxylic acid] gave a pKi of 4.92. Against the preceding compound, the pKi is 0.48 log units lower.

Regarding `O=C(O)c1cc(CCS)cc(C(=O)O)c1` [5-(2-mercaptoethyl)-1,3-benzenedicarboxylic acid], the pKi was 5.29.

With `O=C(O)c1cc(C(=O)O)cc(C(=O)NO)c1` [5-[(hydroxyamino)-carbonyl]-1,3-benzenedicarboxylic acid], the pKi was 6.00.

The same assay, now with this note: read-out: IC50.
In the case of `CC(=O)c1cccc(OC(CCCS)C(=O)O)c1` (centres unmarked) [2-(3-acetylphenoxy)-5-mercapto-pentanoic acid], the pIC50 is 5.54.

As for `O=C(O)c1ccccc1CS` [2-(mercaptomethyl)-benzoic acid], the pIC50 was at most 4.00.

Consider `O=C(O)c1ccc(F)c(CC(CCCS)C(=O)O)c1` (stereo not drawn) [5-carboxy-2-fluoro-alpha-(3-mercaptopropyl)-benzenepropanoic acid], for which the pIC50 is 8.20.

Turning to `O=C(O)c1ccc(Cl)c(OC(CCCS)C(=O)O)c1` (centres unmarked) [3-(1-carboxy-4-mercaptobutoxy)-4-chloro-benzoic acid], the pIC50 is 6.93.

Turning to `CC(S)CCC(Cc1cccc(C(=O)O)c1)C(=O)O` (stereo not drawn) [3-carboxy-alpha-(3-mercaptobutyl)-benzenepropanoic acid], the pIC50 was 7.52.

With `Cc1ccc(C(=O)c2ccccc2C(=O)NO)cc1` [N-Hydroxy-2-(4-methyl-benzoyl)-benzamide], the pIC50 was at most 4.00.

On to `O=C(O)c1c(F)c(F)c(CC(CCCS)C(=O)O)c(F)c1F` (stereo not drawn) [4-carboxy-2,3,5,6-tetrafluoro-alpha-(3-mercaptopropyl)-benzenepropanoic acid], for which the pIC50 was 6.18.

Take `COC(=O)c1cccc(-c2cccc(OCCC(=O)NO)c2C(=O)OC)c1` [3-(2-Hydroxycarbamoyl-ethoxy)-biphenyl-2,3′-dicarboxylic acid dimethyl ester]: the pIC50 is at most 4.00.

Regarding `CCC(SCCCC(Cc1cccc(C(=O)O)c1)C(=O)O)C(=O)NO` (centres unmarked) [3-[2-Carboxy-5-(1-hydroxycarbamoyl-propylsulfanyl)-pentyl]-benzoic acid], the pIC50 is 5.48.

Turning to `O=C(O)CNC(=O)c1cccc(CC(CCCS)C(=O)O)c1` (stereo not drawn) [3-[[(carboxymethyl)amino]carbonyl]-alpha-(3-mercaptopropyl)-benzenepropanoic acid], the pIC50 is 6.54.

As for `O=C(O)c1cc(O)ccc1CCS` [5-hydroxy-2-(2-mercaptoethyl)-benzoic acid], the pIC50 is 5.04.

As for `O=C(CSCCCC(Cc1cc(C(=O)O)cc(-c2ccccc2)c1)C(=O)O)NO` (centres unmarked) [5-(2-Carboxy-5-hydroxycarbamoylmethyl-sulfanylpentyl)-biphenyl-3-carboxylic acid], the pIC50 was 5.77.

For the compound `O=C(O)C(CCCS)Oc1cccc(O)c1` (centres unmarked) [2-(3-hydroxyphenoxy)-5-mercapto-pentanoic acid], the pIC50 is 6.07.

In the case of `CCC(SCC(Cc1cccc(C(=O)O)c1)C(=O)O)C(=O)NO` (centres unmarked) [3-[2-Carboxy-3-(1-hydroxycarbamoyl-propylsulfanyl)-propyl]-benzoic acid], the pIC50 is 4.38.

On to `O=C(O)c1ccc(CC(CCCS)C(=O)O)cc1Br` (stereo not drawn) [3-bromo-4-carboxy-alpha-(3-mercaptopropyl)-benzenepropanoic acid], for which the pIC50 was 6.84.

Take `O=C(O)c1ccccc1CCS` [2-(2-mercaptoethyl)-benzoic acid]: the pIC50 was 6.21.

`O=C(O)c1ccc(-c2ccccc2)c(CC(CCCS)C(=O)O)c1` (centres unmarked) [2-(2-carboxy-5-mercaptopentyl)-[1,1′-biphenyl]-4-carboxylic acid]: the pIC50 is 7.72.

For `CC(=O)Nc1cccc(OC(CCCS)C(=O)O)c1` (centres unmarked) [2-[3-(acetylamino)phenoxy]-5-mercapto-pentanoic acid], the pIC50 is 4.56.

Take `N#Cc1ccc(COc2ccc(C(=O)NO)cc2)cc1` [4-(4-Cyano-benzyloxy)-N-hydroxy-benzamide]: the negative-log IC50 (pIC50) was 4.85.
